In ChEMBL document CHEMBL1141144, “Discovery and structure-activity relationship of 3-aryl-5-aryl-1,2,4-oxadiazoles as a new series of apoptosis inducers and potential anticancer agents” (J Med Chem, 2005):

Columns and labels:
Assay type in all cases: functional
DLD-1 = assay: Growth inhibitory activity against DLD-1 cells done for 48 h at 37 degree C with compound; conditions: Homo sapiens, DLD-1, 48 h
NCI-H1299 = assay: Growth inhibitory activity against H1299 cells done for 48 h at 37 degree C with compound; conditions: Homo sapiens, NCI-H1299, 48 h
T47D = assay: Growth inhibitory activity aganist T47D cells done for 48 hr at 37 degree C with compound; conditions: Homo sapiens
Mus musculus = species: Mus musculus; assay: Inhibition of tumor growth in mice with MX-1 tumor after treatment in combination with paclitaxel

GI50 (DLD-1) [nM]	GI50 (NCI-H1299) [nM]	GI50 (T47D) [nM]	Compound	Inhibition (Mus musculus) [%]
510	> 10000	120	Clc1ccc(-c2noc(-c3occc3Br)n2)cc1	–
930	> 10000	350	FC(F)(F)c1ccc(-c2noc(-c3sccc3Cl)n2)nc1	–
130	> 10000	320	FC(F)(F)c1ccc(-c2noc(-c3occc3Br)n2)cc1	–
850	> 10000	2200	Cc1ccc(-c2noc(-c3sccc3Cl)n2)cc1	–
770	> 10000	220	FC(F)(F)c1ccc(-c2noc(-c3sccc3Cl)n2)cc1	–
400	> 10000	190	Clc1ccc(-c2noc(-c3sccc3Cl)n2)cc1	–
350	> 10000	170	FC(F)(F)c1ccc(-c2noc(-c3occc3Cl)n2)cc1	–
580	> 10000	570	Clc1ccc(-c2noc(-c3sccc3Br)n2)cc1	–
930	> 10000	520	COc1ccc(-c2noc(-c3sccc3Cl)n2)cc1	–
510	> 10000	120	Clc1ccc(-c2noc(-c3occc3Cl)n2)cc1	83
430	> 10000	380	Clc1ccc(-c2noc(-c3occc3Br)n2)nc1	–
800	> 10000	200	Clc1ccc(-c2noc(-c3sccc3Cl)n2)nc1	–
600	> 10000	13000	Clc1ccc(-c2noc(-c3occc3Cl)n2)nc1	–
